Experimental data reported in publication PMC12521730, “Quantitative dual-isotope preclinical SPECT/CT imaging and biodistribution of the mercury-197m/g theranostic pair with [^197m/gHg]HgCl2 and a [^197m/gHg]Hg-tetrathiol complex as a platform for radiopharmaceutical development” (EJNMMI Radiopharmacy and Chemistry, 2025).

Experiment: Ex vivo biodistribution (gamma counter)
Type: in vivo, healthy male C57BL/6 mice
Conditions: Hg-197g, 2 h post administration
Method: For animal injection, the tracer was prepared at high molar activity. Radiolabeling of H4Tetrathiol (10^–2 M in DMSO; 40 μL for imaging, 20 μL for bioD) (or DMSO, for [^197m/gHg]HgCl2 mice) with [^197m/gHg]HgCl2 (imaging: 26.7 MBq total m + g, 62 μL; bioD: 13.04 MBq total m + g, 31 μL) was performed in a mixture of ammonium acetate buffer (1 M; pH 7; 198 μL for imaging or 149 μL for bioD) and 6 M NaOH (72 μL or 38 μL required to achieve a pH of 7.5 after addition of activity, for imaging or BioD labeling, respectively). The reaction was allowed to stand for 1 h at 37 °C and quantitative (> 99%) non-isolated percentage radiochemical yield (%RCY) was confirmed via the iTLC methods mentioned above. Further, 100 µL of the reaction was diluted with 50 µL of PBS Tween-20 (0.01 M sodium phosphate, 0.15 M NaCl, 0.05% Tween-20) for imaging mice, or 50 µL of the reaction was diluted with 100 µL of PBS Tween-20 for BioD mice. The tracers were prepared immediately before injection to avoid radiolysis and minimize the tracer loss to any surfaces due to its lipophilicity. The injected doses of each isomer, ^197mHg and ^197gHg, were quantified by measuring an aliquot of known volume of each tracer preparation via HPGe gamma spectroscopy and decay corrected for time of injection using the Eqs. (1) and (2).
The study was conducted in compliance with the guidelines set by the Canadian Council on Animal Care (CCAC) and approved by the Animal Care Committee (ACC) at the University of British Columbia (A20-0132). A total of eight healthy male C57BL/6 mice weighing approximately 30 g for group 1 and 25 g for group 2 were used in the study. The mice were divided into two experimental groups: group 1 (n = 4) received free [^197m/gHg]HgCl2, while group 2 (n = 4) received [^197m/gHg]Hg-Tetrathiol. Within each group, one mouse was allocated for imaging, while the rest were designated for ex vivo biodistribution analysis. For SPECT imaging, the designated mice were anesthetized using isoflurane via a precision vaporizer. […] Once anesthetized, each imaging mouse received an intravenous (IV) injection via the lateral tail vein of 150 μL of [^197m/gHg]HgCl2 (0.492 MBq ^197mHg + 3.171 MBq ^197gHg) or [^197m/gHg]Hg-Tetrathiol (0.899 MBq ^197mHg + 4.230 MBq ^197gHg) in PBS Tween-20 (0.01 M Na Phosphate, 0.15 M NaCl, 0.05% Tween-20).
Mice received an IV injection of [^197m/gHg]HgCl2 (0.275 MBq ^197mHg + 1.758 MBq ^197gHg, 150 μL) or [^197m/gHg]Hg-Tetrathiol (0.384 MBq ^197mHg + 1.733 MBq ^197gHg, 150 μL) (n = 3 per group) via the lateral tail vein using a Tailveiner restrainer. After the injection, the mice were returned to their experimental cages and allowed unrestricted movement. Biodistribution studies were conducted 2 h after administration. Mice were humanely euthanized with an overdose of isoflurane followed by cardiac puncture to collect blood pool activity. The organs of interest were fully extracted, cleaned of blood without rinsing, weighed, and analysed for radioactivity using a calibrated gamma counter with the 55–93 keV energy window for ^197gHg and the 110–160 keV energy window for ^197mHg (Packard Cobra II, Perkin Elmer, Waltham, MA, USA). The stomach and intestines were carefully cleaned prior to analysis to remove residual contents. For tissues and fluids that could not be fully removed (muscle, blood and bone) activity values were extrapolated based on standardised organ weights for age- and sex-matched mice tables to ensure accurate normalization (Davies and Morris [1993]; Foster et al. [2014]). The stomach and whole intestines were cleaned before analysis. The radioactivity measurements were decay corrected for time of injection using the Eqs. (1) and (2). The results are reported as the percentage of the injected activity per gram of tissue (%IA/g) and percentage of the injected activity per tissue (%IA/organ).

[Cl][Hg][Cl] [[^197m/gHg]HgCl2]
Animal 1 (%IA/Organ): bladder: 0.10 %IA/Organ | Animal 1 (%IA/Organ): blood: 7.19 %IA/Organ | Animal 1 (%IA/Organ): bone: 4.96 %IA/Organ | Animal 1 (%IA/Organ): brain: 0.08 %IA/Organ | Animal 1 (%IA/Organ): feces: 0.04 %IA/Organ | Animal 1 (%IA/Organ): heart: 0.39 %IA/Organ | Animal 1 (%IA/Organ): kidneys: 51.84 %IA/Organ | Animal 1 (%IA/Organ): large intestine: 0.85 %IA/Organ | Animal 1 (%IA/Organ): liver: 11.53 %IA/Organ | Animal 1 (%IA/Organ): lungs: 0.87 %IA/Organ | Animal 1 (%IA/Organ): muscle: 12.34 %IA/Organ | Animal 1 (%IA/Organ): pancreas: 0.32 %IA/Organ | Animal 1 (%IA/Organ): small intestine: 0.99 %IA/Organ | Animal 1 (%IA/Organ): spleen: 0.47 %IA/Organ | Animal 1 (%IA/Organ): stomach: 0.29 %IA/Organ | Animal 1 (%IA/Organ): tail: 4.00 %IA/Organ | Animal 1 (%IA/Organ): urine: 1.57 %IA/Organ | Animal 1 (%IA/g) g: bladder: 1.28 %IA/g | Animal 1 (%IA/g) g: blood: 4.25 %IA/g | Animal 1 (%IA/g) g: bone: 2.26 %IA/g | Animal 1 (%IA/g) g: brain: 0.19 %IA/g | Animal 1 (%IA/g) g: feces: 0.96 %IA/g | Animal 1 (%IA/g) g: heart: 2.62 %IA/g | Animal 1 (%IA/g) g: kidneys: 110 %IA/g | Animal 1 (%IA/g) g: large intestine: 3.42 %IA/g | Animal 1 (%IA/g) g: lungs: 5.68 %IA/g | Animal 1 (%IA/g) g: muscle: 0.94 %IA/g | Animal 1 (%IA/g) g: pancreas: 1.76 %IA/g | Animal 1 (%IA/g) g: small intestine: 4.46 %IA/g | Animal 1 (%IA/g) g: spleen: 5.78 %IA/g | Animal 1 (%IA/g) g: stomach: 2.45 %IA/g | Animal 1 (%IA/g) g: tail: 7.68 %IA/g | Animal 1 (%IA/g) g: urine: 5.10 %IA/g | Animal 2 (%IA/Organ): bladder: 0.06 %IA/Organ | Animal 2 (%IA/Organ): blood: 5.88 %IA/Organ | Animal 2 (%IA/Organ): bone: 4.05 %IA/Organ | Animal 2 (%IA/Organ): brain: 0.04 %IA/Organ | Animal 2 (%IA/Organ): feces: 0.02 %IA/Organ | Animal 2 (%IA/Organ): heart: 0.21 %IA/Organ | Animal 2 (%IA/Organ): kidneys: 44.76 %IA/Organ | Animal 2 (%IA/Organ): large intestine: 0.60 %IA/Organ | Animal 2 (%IA/Organ): liver: 6.34 %IA/Organ | Animal 2 (%IA/Organ): lungs: 0.50 %IA/Organ | Animal 2 (%IA/Organ): muscle: 6.72 %IA/Organ | Animal 2 (%IA/Organ): pancreas: 0.22 %IA/Organ | Animal 2 (%IA/Organ): small intestine: 0.66 %IA/Organ | Animal 2 (%IA/Organ): spleen: 0.25 %IA/Organ | Animal 2 (%IA/Organ): stomach: 0.18 %IA/Organ | Animal 2 (%IA/Organ): tail: 2.34 %IA/Organ | Animal 2 (%IA/Organ): urine: 0.04 %IA/Organ | Animal 2 (%IA/g) g: bladder: 2.73 %IA/g | Animal 2 (%IA/g) g: blood: 3.53 %IA/g | Animal 2 (%IA/g) g: bone: 1.87 %IA/g | Animal 2 (%IA/g) g: brain: 0.10 %IA/g | Animal 2 (%IA/g) g: feces: 0.42 %IA/g | Animal 2 (%IA/g) g: heart: 1.60 %IA/g | Animal 2 (%IA/g) g: kidneys: 107 %IA/g | Animal 2 (%IA/g) g: large intestine: 2.61 %IA/g | Animal 2 (%IA/g) g: liver: 5.13 %IA/g | Animal 2 (%IA/g) g: lungs: 3.11 %IA/g | Animal 2 (%IA/g) g: muscle: 0.52 %IA/g | Animal 2 (%IA/g) g: pancreas: 1.31 %IA/g | Animal 2 (%IA/g) g: small intestine: 2.72 %IA/g | Animal 2 (%IA/g) g: spleen: 3.43 %IA/g | Animal 2 (%IA/g) g: stomach: 1.70 %IA/g | Animal 2 (%IA/g) g: tail: 4.62 %IA/g | Animal 2 (%IA/g) g: urine: 3.81 %IA/g | Animal 3 (%IA/Organ): bladder: 0.03 %IA/Organ | Animal 3 (%IA/Organ): blood: 5.49 %IA/Organ | Animal 3 (%IA/Organ): bone: 3.89 %IA/Organ | Animal 3 (%IA/Organ): brain: 0.05 %IA/Organ | Animal 3 (%IA/Organ): feces: 0.09 %IA/Organ | Animal 3 (%IA/Organ): heart: 0.20 %IA/Organ | Animal 3 (%IA/Organ): kidneys: 46.92 %IA/Organ | Animal 3 (%IA/Organ): large intestine: 0.43 %IA/Organ | Animal 3 (%IA/Organ): liver: 6.61 %IA/Organ | Animal 3 (%IA/Organ): lungs: 0.50 %IA/Organ | Animal 3 (%IA/Organ): muscle: 6.84 %IA/Organ | Animal 3 (%IA/Organ): pancreas: 0.25 %IA/Organ | Animal 3 (%IA/Organ): small intestine: 0.62 %IA/Organ | Animal 3 (%IA/Organ): spleen: 0.22 %IA/Organ | Animal 3 (%IA/Organ): stomach: 0.18 %IA/Organ | Animal 3 (%IA/Organ): tail: 2.23 %IA/Organ | Animal 3 (%IA/Organ): urine: 0.63 %IA/Organ | Animal 3 (%IA/g) g: bladder: 1.50 %IA/g | Animal 3 (%IA/g) g: blood: 3.33 %IA/g | Animal 3 (%IA/g) g: bone: 1.79 %IA/g | Animal 3 (%IA/g) g: brain: 0.11 %IA/g | Animal 3 (%IA/g) g: feces: 2.78 %IA/g | Animal 3 (%IA/g) g: heart: 1.46 %IA/g | Animal 3 (%IA/g) g: kidneys: 108 %IA/g | Animal 3 (%IA/g) g: large intestine: 2.41 %IA/g | Animal 3 (%IA/g) g: liver: 4.96 %IA/g | Animal 3 (%IA/g) g: lungs: 3.44 %IA/g | Animal 3 (%IA/g) g: muscle: 0.53 %IA/g | Animal 3 (%IA/g) g: pancreas: 1.39 %IA/g | Animal 3 (%IA/g) g: small intestine: 2.89 %IA/g | Animal 3 (%IA/g) g: spleen: 2.94 %IA/g | Animal 3 (%IA/g) g: stomach: 1.57 %IA/g | Animal 3 (%IA/g) g: tail: 4.40 %IA/g | Animal 3 (%IA/g) g: urine: 3.90 %IA/g | Animal 4 (%IA/Organ): bladder: 0.07 %IA/Organ | Animal 4 (%IA/Organ): blood: 4.67 %IA/Organ | Animal 4 (%IA/Organ): bone: 3.74 %IA/Organ | Animal 4 (%IA/Organ): brain: 0.05 %IA/Organ | Animal 4 (%IA/Organ): feces: 0.07 %IA/Organ | Animal 4 (%IA/Organ): heart: 0.21 %IA/Organ | Animal 4 (%IA/Organ): kidneys: 49.72 %IA/Organ | Animal 4 (%IA/Organ): large intestine: 0.41 %IA/Organ | Animal 4 (%IA/Organ): liver: 6.62 %IA/Organ | Animal 4 (%IA/Organ): lungs: 0.46 %IA/Organ | Animal 4 (%IA/Organ): muscle: 6.43 %IA/Organ | Animal 4 (%IA/Organ): pancreas: 0.20 %IA/Organ | Animal 4 (%IA/Organ): small intestine: 0.54 %IA/Organ | Animal 4 (%IA/Organ): spleen: 0.32 %IA/Organ | Animal 4 (%IA/Organ): stomach: 0.17 %IA/Organ | Animal 4 (%IA/Organ): tail: 1.77 %IA/Organ | Animal 4 (%IA/Organ): urine: 0.38 %IA/Organ | Animal 4 (%IA/g) g: bladder: 2.90 %IA/g | Animal 4 (%IA/g) g: blood: 3.00 %IA/g | Animal 4 (%IA/g) g: bone: 1.85 %IA/g | Animal 4 (%IA/g) g: brain: 0.12 %IA/g | Animal 4 (%IA/g) g: feces: 1.01 %IA/g | Animal 4 (%IA/g) g: heart: 1.49 %IA/g
